{"source": "paper PMC7413297", "about": "(Journal of immunology (Baltimore, Md. : 1950), 2020)", "biological_target": "HLA A*02:01 class I molecules (Homo sapiens, UniProt P04439, D140Y/D185E/D98H/E176V/E277Q/G131W/G231S/I119V/I121R/I166T/I218V/L300P/L318F/N151K/N90K/P208A/P217A/Q86G/Q94H/R138H/R169H/T345S)", "test": "MHC-peptide competitive binding assay", "key": {"[1]": {"conditions": "IC50 2-ME, reducing conditions, 1 mM 2-ME added"}, "[2]": {"conditions": "IC50 No Protease Inhibitors, as standard assay but excluding protease inhibitors"}, "[3]": {"conditions": "as standard assay but excluding protease inhibitors"}, "[4]": {"conditions": "reducing conditions, 1 mM 2-ME added"}}, "note": "Like-named read-outs stand apart in the source and are kept apart here. Ends that are not written are not given here. Peptide text beside a SMILES is read from it."}
{"compound": "CC[C@H](C)[C@H](N)C(=O)N[C@@H](CC(C)C)C(=O)N[C@@H](CS)C(=O)N[C@@H](CCC(=O)O)C(=O)N[C@H](C(=O)N[C@@H](CS)C(=O)N[C@@H](CC(C)C)C(=O)N[C@H](C(=O)N[C@H](C(=O)O)C(C)C)[C@@H](C)CC)[C@@H](C)O", "note": "[reference compound] (H-ILCETCLIV-OH)", "values": [{"measurement": "IC50", "result": 458, "unit": "nM"}, {"measurement": "IC50", "setting": "[1]", "result": 304, "unit": "nM"}, {"measurement": "IC50", "setting": "[2]", "result": 323, "unit": "nM"}]}
{"compound": "CC[C@H](C)[C@H](N)C(=O)N[C@@H](CC(C)C)C(=O)N[C@@H](CS)C(=O)NCC(=O)N[C@H](C(=O)N[C@@H](CS)C(=O)N[C@@H](CC(C)C)C(=O)N[C@H](C(=O)N[C@H](C(=O)O)C(C)C)[C@@H](C)CC)[C@@H](C)O", "note": "[reference compound] (H-ILCGTCLIV-OH)", "values": [{"measurement": "IC50", "result": 206, "unit": "nM"}, {"measurement": "IC50", "setting": "[1]", "result": 244, "unit": "nM"}, {"measurement": "IC50", "setting": "[2]", "result": 582, "unit": "nM"}]}
{"compound": "ILBGTBLIV", "values": [{"measurement": "IC50 No Protease Inhibitors", "setting": "[3]", "result": 733, "unit": "ng/mL"}, {"measurement": "IC50 2-ME", "setting": "[4]", "result": "1,547 ng/ml"}]}
{"compound": "ILCETBLIV", "values": [{"measurement": "IC50 No Protease Inhibitors", "setting": "[3]", "result": 104, "unit": "ng/mL"}, {"measurement": "IC50 2-ME", "setting": "[4]", "result": 93, "unit": "ng/mL"}]}
{"compound": "BISSBNPNP", "values": [{"measurement": "IC50 No Protease Inhibitors", "setting": "[3]", "result": "17,100 ng/ml"}, {"measurement": "IC50 2-ME", "setting": "[4]", "result": "13,400 ng/ml"}]}
{"compound": "SCSRAVPQV [reference compound]", "values": [{"measurement": "IC50", "result": 12300, "unit": "nM"}, {"measurement": "IC50", "setting": "[1]", "result": 2480, "unit": "nM"}, {"measurement": "IC50", "setting": "[2]", "result": 7350, "unit": "nM"}]}
{"compound": "CISSBNPNL", "values": [{"measurement": "IC50 No Protease Inhibitors", "setting": "[3]", "result": "1,047 ng/ml"}, {"measurement": "IC50 2-ME", "setting": "[4]", "result": 618, "unit": "ng/mL"}]}
{"compound": "ILBETCLIV", "values": [{"measurement": "IC50 No Protease Inhibitors", "setting": "[3]", "result": 58, "unit": "ng/mL"}, {"measurement": "IC50 2-ME", "setting": "[4]", "result": 82, "unit": "ng/mL"}]}
{"compound": "BISSCNPNL", "values": [{"measurement": "IC50 No Protease Inhibitors", "setting": "[3]", "result": 573, "unit": "ng/mL"}, {"measurement": "IC50 2-ME", "setting": "[4]", "result": 250, "unit": "ng/mL"}]}
{"compound": "SCSRAIPQV [reference compound]", "values": [{"measurement": "IC50", "result": 1530, "unit": "nM"}, {"measurement": "IC50", "setting": "[1]", "result": 207, "unit": "nM"}, {"measurement": "IC50", "setting": "[2]", "result": 551, "unit": "nM"}]}
{"compound": "VLPDVFIRB", "values": [{"measurement": "IC50 No Protease Inhibitors", "setting": "[3]", "result": 3.3, "unit": "ng/mL"}, {"measurement": "IC50 2-ME", "setting": "[4]", "result": 2.5, "unit": "ng/mL"}]}
{"compound": "BISSBNPNL", "values": [{"measurement": "IC50 No Protease Inhibitors", "setting": "[3]", "result": 604, "unit": "ng/mL"}, {"measurement": "IC50 2-ME", "setting": "[4]", "result": "1,260 ng/ml"}]}
{"compound": "HMTEVVRRC [reference compound]", "values": [{"measurement": "IC50", "result": 9010, "unit": "nM"}, {"measurement": "IC50", "setting": "[1]", "result": 907, "unit": "nM"}, {"measurement": "IC50", "setting": "[2]", "result": 1010, "unit": "nM"}]}
{"compound": "BQWGRLWQL", "values": [{"measurement": "IC50 No Protease Inhibitors", "setting": "[3]", "result": 121, "unit": "ng/mL"}, {"measurement": "IC50 2-ME", "setting": "[4]", "result": 93, "unit": "ng/mL"}]}
{"compound": "ACDPHSGHFV [reference compound]", "values": [{"measurement": "IC50", "setting": "[1]", "result": 12600, "unit": "nM"}, {"measurement": "IC50", "setting": "[2]", "result": 3090, "unit": "nM"}]}
{"compound": "CQWGRLWQL [reference compound]", "values": [{"measurement": "IC50", "result": 1200, "unit": "nM"}, {"measurement": "IC50", "setting": "[1]", "result": 130, "unit": "nM"}, {"measurement": "IC50", "setting": "[2]", "result": 952, "unit": "nM"}]}
{"compound": "RLPRIFBSB", "values": [{"measurement": "IC50 No Protease Inhibitors", "setting": "[3]", "result": 7.2, "unit": "ng/mL"}, {"measurement": "IC50 2-ME", "setting": "[4]", "result": 14, "unit": "ng/mL"}]}
{"compound": "SLLMWITQB", "values": [{"measurement": "IC50 No Protease Inhibitors", "setting": "[3]", "result": 94, "unit": "ng/mL"}]}
{"compound": "ILCGTBLIV", "values": [{"measurement": "IC50 No Protease Inhibitors", "setting": "[3]", "result": 839, "unit": "ng/mL"}, {"measurement": "IC50 2-ME", "setting": "[4]", "result": 885, "unit": "ng/mL"}]}
{"compound": "1LBETBLIV", "values": [{"measurement": "IC50 No Protease Inhibitors", "setting": "[3]", "result": 14, "unit": "ng/mL"}, {"measurement": "IC50 2-ME", "setting": "[4]", "result": 24, "unit": "ng/mL"}]}
{"compound": "RLPRIFCSB", "values": [{"measurement": "IC50 No Protease Inhibitors", "setting": "[3]", "result": 11, "unit": "ng/mL"}, {"measurement": "IC50 2-ME", "setting": "[4]", "result": 27, "unit": "ng/mL"}]}
{"compound": "VLPDVFIRC [reference compound]", "values": [{"measurement": "IC50", "result": 454, "unit": "nM"}, {"measurement": "IC50", "setting": "[1]", "result": 30.2, "unit": "nM"}, {"measurement": "IC50", "setting": "[2]", "result": 121, "unit": "nM"}]}
